Assay results from the NIST ThermoML archive (doi:10.1007/s10765-008-0410-4).
Numbers after ± are expanded uncertainties.

Conditions: Liquid, Vibrating tube method

## CCCCn1cc[n+](C)c1.F[B-](F)(F)F [1-butyl-3-methylimidazolium tetrafluoroborate]
298.15 K, 280 kPa
  mass density: 1211.19 ± 1.3 kg/m3
298.15 K, 5640 kPa
  mass density: 1213.63 ± 1.4 kg/m3
298.15 K, 10620 kPa
  mass density: 1215.85 ± 1.4 kg/m3
298.15 K, 15340 kPa
  mass density: 1217.77 ± 1.4 kg/m3
298.15 K, 20640 kPa
  mass density: 1220.29 ± 1.5 kg/m3
298.15 K, 25270 kPa
  mass density: 1222.18 ± 1.5 kg/m3
298.15 K, 30050 kPa
  mass density: 1223.93 ± 1.6 kg/m3
298.15 K, 35410 kPa
  mass density: 1226.07 ± 1.6 kg/m3
298.15 K, 39610 kPa
  mass density: 1227.81 ± 1.7 kg/m3
323.15 K, 730 kPa
  mass density: 1192.89 ± 1.3 kg/m3
323.15 K, 5640 kPa
  mass density: 1195.3 ± 1.3 kg/m3
323.15 K, 10610 kPa
  mass density: 1197.71 ± 1.4 kg/m3
323.15 K, 15440 kPa
  mass density: 1200.01 ± 1.4 kg/m3
323.15 K, 20460 kPa
  mass density: 1202.37 ± 1.4 kg/m3
323.15 K, 25360 kPa
  mass density: 1204.64 ± 1.5 kg/m3
323.15 K, 30740 kPa
  mass density: 1207.09 ± 1.5 kg/m3
323.15 K, 35650 kPa
  mass density: 1209.29 ± 1.6 kg/m3
323.15 K, 39850 kPa
  mass density: 1211.14 ± 1.6 kg/m3
348.15 K, 210 kPa
  mass density: 1174.44 ± 1.2 kg/m3
348.15 K, 5960 kPa
  mass density: 1177.75 ± 1.3 kg/m3
348.15 K, 10480 kPa
  mass density: 1180.3 ± 1.3 kg/m3
348.15 K, 15430 kPa
  mass density: 1182.72 ± 1.3 kg/m3
348.15 K, 20870 kPa
  mass density: 1185.63 ± 1.4 kg/m3
348.15 K, 25850 kPa
  mass density: 1188.16 ± 1.4 kg/m3
348.15 K, 30110 kPa
  mass density: 1190.19 ± 1.5 kg/m3
348.15 K, 35110 kPa
  mass density: 1192.88 ± 1.5 kg/m3
348.15 K, 39610 kPa
  mass density: 1194.77 ± 1.6 kg/m3
373.15 K, 470 kPa
  mass density: 1157.24 ± 1.2 kg/m3
373.15 K, 5350 kPa
  mass density: 1160.25 ± 1.2 kg/m3
373.15 K, 10080 kPa
  mass density: 1163.09 ± 1.2 kg/m3
373.15 K, 15710 kPa
  mass density: 1166.39 ± 1.3 kg/m3
373.15 K, 20970 kPa
  mass density: 1169.38 ± 1.3 kg/m3
373.15 K, 25820 kPa
  mass density: 1172.07 ± 1.4 kg/m3
373.15 K, 30120 kPa
  mass density: 1174.39 ± 1.4 kg/m3
373.15 K, 35530 kPa
  mass density: 1177.22 ± 1.5 kg/m3
373.15 K, 39820 kPa
  mass density: 1179.41 ± 1.5 kg/m3
398.15 K, 870 kPa
  mass density: 1141.05 ± 1.1 kg/m3
398.15 K, 6670 kPa
  mass density: 1144.53 ± 1.2 kg/m3
398.15 K, 10490 kPa
  mass density: 1147.07 ± 1.2 kg/m3
398.15 K, 15730 kPa
  mass density: 1150.32 ± 1.2 kg/m3
398.15 K, 20980 kPa
  mass density: 1153.78 ± 1.3 kg/m3
398.15 K, 25140 kPa
  mass density: 1156.3 ± 1.3 kg/m3
398.15 K, 30890 kPa
  mass density: 1159.52 ± 1.4 kg/m3
398.15 K, 35810 kPa
  mass density: 1162.4 ± 1.4 kg/m3
398.15 K, 39560 kPa
  mass density: 1164.38 ± 1.4 kg/m3
